From patent publication US10016382B2, “Method for decreasing skeletal muscle damage and/or oxidative stress in mammals” (LONZA INC., priority 2014, dated 2018)
Values joined by “and” are separate entries in the source; they are usually repeats but may differ in a detail not shown here. Equal entries are not always repeated.

What was measured:
Labrador Retrievers [1] = assay: Heart rate and body temperature recovery following 15 mile run, Example 2 part one; assay type: in vivo, dog; details: for Temperature After Run: in °F (unit assumed)
Procedure: Each performance dog wore the Actical activity monitor and GPS tracking collar during the last 15 mile endurance run. The final run was conducted in a manner analogous to that of Example 1. All activity was accurately and precisely calculated using the GPS tracking monitors. Immediately following the 15 mile endurance run, each dog was placed in a kennel and evaluated for recovery time in body temperature (every 15 minutes for 2 hours) and heart rate (every 2 minutes for up to 20 minutes until basal beats per minute (BPM) was reached). Body temperature and heart rate were measured as described in Example 1.

Labrador Retrievers [2] = assay: Activity by Actical monitors, short (sprint) runs, Example 1; assay type: in vivo, dog; details: Ex.1, 250 mg/d; for Activity short runs, Least Sq Mean: average of weekly short runs over 13 wk, mixed model
Description: Each test dog wore an Actical activity monitor from Philips Respironics on a collar for the short higher intensity runs and also wore an Actical activity monitor for the weekly longer endurance runs. The activity data was downloaded into spread sheets along with each dogs identity. Twenty four hours after each long run during the 13 wk running program each of the dogs were scored by kennel staff for soreness or any type of lameness The exercise program was decreased in a tapering program during wk 11 and 12 to allow the dogs to rest for the final long run completed on wk 13. Pre-run serum samples from each test dog was taken 24 hr before the last endurance run. The heart rate and basal body temperature was determined for each test dog prior to the last long endurance run. Exercise Regimen: Each group of dogs were put through two different types of exercise programs on a weekly basis. The exercise regimen consisted of both sprint (short runs) and endurance (long runs) type work during the 90 day period. Each group of dogs were put through a simulated amount of work that would be equal to competing in an AKC Junior Hunt Test (American […] Club) and also once a week the dogs were put through a simulated endurance run. Each group of test dogs ran the AKC Hunt Test workout 26 times during the 13 wk study which was 2 times per week. During each week, each group ran the test 2 times with 1 day rest between runs. The AKC Hunt Test workout during the initial week amounted to two days of 6 consecutive sprint type retrieves for a minimum of 100 yd each way making a total of 1200 yd per day or 2400 yd per wk. The dogs brought back a bumper (equivalent to a duck or mark) to the handler during the exercise. […] The length of time involved in the intense exercise simulating the AKC Hunt Test was approximately 10 to 15 minutes per dog each of the short run days and was equal for both treatments. The rest time between retrieves (sprints) in a set during the simulated weekly AKC Hunt Test was equal for all dogs. Performance and Recovery Time: An Actical monitor (Philips Respironics) was worn around the neck of each dog on a collar and utilized to evaluate the amount of movement (measured total movements and intensity) for each dog for the purpose of evaluating equal work between treatments and also to evaluate the individual work intensity while completing the daily retrieves. Each dog wore the Actical monitor for each long run and wore the Actical monitor for the final 15 mile run. The Actical monitor data was downloaded to a computer for evaluation. Statistical Methods: GraphPad Prism 6.0 was used to compare means between groups for run time, food intake, body weight, and changes in blood chemistry using an unpaired t-test. Results were considered significant if a p-value of 0.05 was obtained. JMP 10.0.2 was used to create a mixed model for long runs, short runs, body composition, and blood chemistry.

C[N+](C)(C)C[C@H](O)CC(=O)[O-] [L-carnitine]
Heartrate after run (Labrador Retrievers [1]; Ex.2 part one, 250 mg/d, 4 minutes post final run, both sexes): 156.15 BPM | Heartrate after run (Labrador Retrievers [1]; Ex.2 part one, 250 mg/d, 4 minutes post final run, males): 160 BPM | Heartrate after run (Labrador Retrievers [1]; Ex.2 part one, 250 mg/d, immediately following 15 mile run, both sexes): 184.23 BPM | Return to basal temperature vs control (regression model) (Labrador Retrievers [1]; Ex.2 part one, 250 mg/d, males and females, FIGS. 5A, 5B): reached basal temperatures faster | Return to basal heart rate vs control (regression model) (Labrador Retrievers [1]; Ex.2 part one, 250 mg/d, overall group, males and females, FIGS. 4A, 4B): reached basal heart rate faster | Temperature After Run (Labrador Retrievers [1]; Females, Temp - 0 min after 15 mile run): 105.16 ± 0.35 | Temperature After Run (Labrador Retrievers [1]; Females, Temp - 15 min after 15 mile run): 102.69 ± 0.24 | Temperature After Run (Labrador Retrievers [1]; Females, Temp - 30 min after 15 mile run): 101.31 ± 0.2 | Temperature After Run (Labrador Retrievers [1]; Females, Temp - 45 min after 15 mile run): 101.16 ± 0.2 | Temperature After Run (Labrador Retrievers [1]; Females, Temp - 60 min after 15 mile run): 101.14 ± 0.2 | Heartrate After Run (Labrador Retrievers [1]; Females, Time - 0 min after 15 mile run): 180.83 ± 3.36 BPM | Heartrate After Run (Labrador Retrievers [1]; Females, Time - 2 min after 15 mile run): 165 ± 6.09 BPM | Heartrate After Run (Labrador Retrievers [1]; Females, Time - 4 min after 15 mile run): 152.31 ± 6.71 BPM | Heartrate After Run (Labrador Retrievers [1]; Females, Time - 6 min after 15 mile run): 149.17 ± 6.21 BPM | Heartrate After Run (Labrador Retrievers [1]; Females, Time - 8 min after 15 mile run): 135 ± 6.34 BPM | Heartrate After Run (Labrador Retrievers [1]; Females, Time - 10 min after 15 mile run): 117.9 ± 7.45 BPM | Heartrate After Run (Labrador Retrievers [1]; Females, Time - 12 min after 15 mile run): 113.08 ± 8.5 BPM | Heartrate After Run (Labrador Retrievers [1]; Females, Time - 14 min after 15 mile run): 107.27 ± 8.95 BPM | Heartrate After Run (Labrador Retrievers [1]; Females, Time - 16 min after 15 mile run): 78.57 ± 5.73 BPM | Heartrate After Run (Labrador Retrievers [1]; Females, Time - 18 min after 15 mile run): 77.86 ± 5.47 BPM | Heartrate After Run (Labrador Retrievers [1]; Females, Time - 20 min after 15 mile run): 77.14 ± 5.29 BPM | Temperature After Run (Labrador Retrievers [1]; Males, Temp - 0 min after 15 mile run): 105.79 ± 0.36 | Temperature After Run (Labrador Retrievers [1]; Males, Temp - 15 min after 15 mile run): 102.39 ± 0.4 | Temperature After Run (Labrador Retrievers [1]; Males, Temp - 30 min after 15 mile run): 100.94 ± 0.23 | Temperature After Run (Labrador Retrievers [1]; Males, Temp - 45 min after 15 mile run): 100.87 ± 0.19 | Temperature After Run (Labrador Retrievers [1]; Males, Temp - 60 min after 15 mile run): 100.87 ± 0.19 | Heartrate After Run (Labrador Retrievers [1]; Males, Time - 0 min after 15 mile run): 187.14 ± 3.54 BPM | Heartrate After Run (Labrador Retrievers [1]; Males, Time - 2 min after 15 mile run): 172.14 ± 3.81 BPM | Heartrate After Run (Labrador Retrievers [1]; Males, Time - 4 min after 15 mile run): 160 ± 4.94 BPM | Heartrate After Run (Labrador Retrievers [1]; Males, Time - 6 min after 15 mile run): 142.86 ± 5.59 BPM | Heartrate After Run (Labrador Retrievers [1]; Males, Time - 8 min after 15 mile run): 129.29 ± 5.29 BPM | Heartrate After Run (Labrador Retrievers [1]; Males, Time - 10 min after 15 mile run): 122.86 ± 3.7 BPM | Heartrate After Run (Labrador Retrievers [1]; Males, Time - 12 min after 15 mile run): 108.57 ± 3.76 BPM | Heartrate After Run (Labrador Retrievers [1]; Males, Time - 14 min after 15 mile run): 95 ± 3.1 BPM | Heartrate After Run (Labrador Retrievers [1]; Males, Time - 16 min after 15 mile run): 92.14 ± 3 BPM | Heartrate After Run (Labrador Retrievers [1]; Males, Time - 18 min after 15 mile run): 89.29 ± 2.21 BPM | Heartrate After Run (Labrador Retrievers [1]; Males, Time - 20 min after 15 mile run): 89.29 ± 2.21 BPM | Temperature After Run (Labrador Retrievers [1]; Whole Groups, Temp - 0 min after 15 mile run): 105.48 ± 0.25 | Temperature After Run (Labrador Retrievers [1]; Whole Groups, Temp - 15 min after 15 mile run): 102.54 ± 0.23 | Temperature After Run (Labrador Retrievers [1]; Whole Groups, Temp - 30 min after 15 mile run): 101.12 ± 0.15 | Temperature After Run (Labrador Retrievers [1]; Whole Groups, Temp - 45 min after 15 mile run): 101.01 ± 0.14 | Temperature After Run (Labrador Retrievers [1]; Whole Groups, Temp - 60 min after 15 mile run): 101.01 ± 0.14 | Heartrate After Run (Labrador Retrievers [1]; Whole Groups, Time - 0 min after 15 mile run): 184.23 ± 2.49 BPM | Heartrate After Run (Labrador Retrievers [1]; Whole Groups, Time - 2 min after 15 mile run): 168.85 ± 3.48 BPM | Heartrate After Run (Labrador Retrievers [1]; Whole Groups, Time - 4 min after 15 mile run): 156.15 ± 4.15 BPM | Heartrate After Run (Labrador Retrievers [1]; Whole Groups, Time - 6 min after 15 mile run): 145.77 ± 4.12 BPM | Heartrate After Run (Labrador Retrievers [1]; Whole Groups, Time - 8 min after 15 mile run): 131.92 ± 4.04 BPM | Heartrate After Run (Labrador Retrievers [1]; Whole Groups, Time - 10 min after 15 mile run): 120.79 ± 3.72 BPM | Heartrate After Run (Labrador Retrievers [1]; Whole Groups, Time - 12 min after 15 mile run): 110.74 ± 4.46 BPM | Heartrate After Run (Labrador Retrievers [1]; Whole Groups, Time - 14 min after 15 mile run): 100.4 ± 4.38 BPM | Heartrate After Run (Labrador Retrievers [1]; Whole Groups, Time - 16 min after 15 mile run): 85.36 ± 3.43 BPM | Heartrate After Run (Labrador Retrievers [1]; Whole Groups, Time - 18 min after 15 mile run): 83.57 ± 3.1 BPM | Heartrate After Run (Labrador Retrievers [1]; Whole Groups, Time - 20 min after 15 mile run): 83.21 ± 3.05 BPM | Activity short runs, APM/lb Mean (Labrador Retrievers [2]; Week 3, both sexes): 1479 Movements/Mile/LB BW | Activity short runs, APM/lb Mean (Labrador Retrievers [2]; Week 3, females): 1636 Movements/Mile/LB BW | Activity short runs, APM/lb Mean (Labrador Retrievers [2]; Week 3, males): 1338 Movements/Mile/LB BW | Activity short runs, APM/lb Mean (Labrador Retrievers [2]; Week 4, both sexes): 1402 Movements/Mile/LB BW | Activity short runs, APM/lb Mean (Labrador Retrievers [2]; Week 4, females): 1608 Movements/Mile/LB BW | Activity short runs, APM/lb Mean (Labrador Retrievers [2]; Week 4, males): 1234 Movements/Mile/LB BW | Activity short runs, APM/lb Mean (Labrador Retrievers [2]; Week 5, both sexes): 1314 Movements/Mile/LB BW | Activity short runs, APM/lb Mean (Labrador Retrievers [2]; Week 5, females): 1362 Movements/Mile/LB BW | Activity short runs, APM/lb Mean (Labrador Retrievers [2]; Week 5, males): 1275 Movements/Mile/LB BW | Activity short runs, APM/lb Mean (Labrador Retrievers [2]; Week 6, both sexes): 1375 Movements/Mile/LB BW | Activity short runs, APM/lb Mean (Labrador Retrievers [2]; Week 6, females): 1340 Movements/Mile/LB BW | Activity short runs, APM/lb Mean (Labrador Retrievers [2]; Week 6, males): 1403 Movements/Mile/LB BW | Activity short runs, APM/lb Mean (Labrador Retrievers [2]; Week 7, both sexes): 1380 Movements/Mile/LB BW | Activity short runs, APM/lb Mean (Labrador Retrievers [2]; Week 7, females): 1347 Movements/Mile/LB BW | Activity short runs, APM/lb Mean (Labrador Retrievers [2]; Week 7, males): 1407 Movements/Mile/LB BW | Activity short runs, APM/lb Mean (Labrador Retrievers [2]; Week 8, both sexes): 1249 Movements/Mile/LB BW | Activity short runs, APM/lb Mean (Labrador Retrievers [2]; Week 8, females): 1330 Movements/Mile/LB BW | Activity short runs, APM/lb Mean (Labrador Retrievers [2]; Week 8, males): 1183 Movements/Mile/LB BW | Activity short runs, APM/lb Mean (Labrador Retrievers [2]; Week 9, both sexes): 1234 Movements/Mile/LB BW | Activity short runs, APM/lb Mean (Labrador Retrievers [2]; Week 9, females): 1388 Movements/Mile/LB BW | Activity short runs, APM/lb Mean (Labrador Retrievers [2]; Week 9, males): 1108 Movements/Mile/LB BW | Activity short runs, APM/lb Mean (Labrador Retrievers [2]; Week 10, both sexes): 1114 Movements/Mile/LB BW | Activity short runs, APM/lb Mean (Labrador Retrievers [2]; Week 10, females): 1222 Movements/Mile/LB BW | Activity short runs, APM/lb Mean (Labrador Retrievers [2]; Week 10, males): 1026 Movements/Mile/LB BW | Activity short runs, APM/lb Mean (Labrador Retrievers [2]; Week 11, both sexes): 1111 Movements/Mile/LB BW | Activity short runs, APM/lb Mean (Labrador Retrievers [2]; Week 11, females): 1128 Movements/Mile/LB BW | Activity short runs, APM/lb Mean (Labrador Retrievers [2]; Week 11, males): 1098 Movements/Mile/LB BW | Activity short runs, APM/lb Mean (Labrador Retrievers [2]; Week 12, both sexes): 2500 Movements/Mile/LB BW | Activity short runs, APM/lb Mean (Labrador Retrievers [2]; Week 12, females): 2804 Movements/Mile/LB BW | Activity short runs, APM/lb Mean (Labrador Retrievers [2]; Week 12, males): 2251 Movements/Mile/LB BW | Activity short runs, APM/lb Mean (Labrador Retrievers [2]; Week 13, both sexes): 1741 Movements/Mile/LB BW | Activity short runs, APM/lb Mean (Labrador Retrievers [2]; Week 13, females): 1661 Movements/Mile/LB BW | Activity short runs, APM/lb Mean (Labrador Retrievers [2]; Week 13, males): 1806 Movements/Mile/LB BW | Activity short runs, Least Sq Mean (Labrador Retrievers [2]; both sexes): 1451 Movements/Mile/LB BW and 1451.0357 Movements/Mile/LB BW | Activity short runs, Least Sq Mean (Labrador Retrievers [2]; females): 1522 Movements/Mile/LB BW and 1528.6226 Movements/Mile/LB BW | Activity short runs, Least Sq Mean (Labrador Retrievers [2]; males): 1373.4487 Movements/Mile/LB BW
